Data on ten molecules can be found in US11207312B2, “Metallo-beta-lactamase inhibitors and methods of use thereof” (priority 2017, dated 2021).

Read-outs that look alike come from different tables or passages of the source.

The target of data set [1] is NDM-1 (Klebsiella pneumoniae, UniProt C7C422). As to the kind of experiment: biochemical. The settings on record: CCF2-FA fluorescence assay, 2 hours at 25° C. It counts as biochemical. The method, boiled down:
(§1)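 Buffer 100 mM KH2PO4 pH 7, 0.005% Tween-20, 10 μM ZnSO4. NDM-1 1 pM, IMP-1 2 pM, VIM-1 30 pM final; CCF2-FA 1.25 μM. Cpd 20–0.00063 μM, 2 h, 25° C. Ex 405/Em 460 nm; IC50 via 4-parameter curve.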

Data set [2] concerns the target IMP-1 (Serratia marcescens, UniProt P52699). As to the kind of experiment: biochemical. The settings on record: CCF2-FA fluorescence assay, 2 hours at 25° C.; read-out: IMP1 IC50. In short, it runs like this:
as §1

Data set [3] has as its target VIM-1 (Pseudomonas aeruginosa (strain ATCC 15692 / DSM 22644 / CIP 104116 / JCM 14847 / LMG 12228 / 1C / PRS 101 / PAO1), UniProt A0A0F7KYQ8). As to the kind of experiment: biochemical. The settings on record: CCF2-FA fluorescence assay, 2 hours at 25° C.; read-out: VIM1 IC50. The method, boiled down: as §1
Data set [4] has as its target VIM-2 (Escherichia coli, UniProt Q5U7L7). As to the kind of experiment: biochemical.
For data set [5], the system named is Escherichia coli expressing NDM-1 (CLB30016). It counts as cell-based. The settings on record: with imipenem 1 μg/ml; 95% inhibition of bacterial growth. The method, boiled down: (§2)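 Synergy with imipenem at a fixed 1 μg/ml was scored by absorbance following 22–24 h incubation at 35 °C; the potentiating concentration (MITC95) was the lowest giving 95% growth inhibition.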

The test system of data set [6] is Klebsiella pneumoniae expressing VIM-1 (IHMA599644). It counts as cell-based. The settings on record: with imipenem 1 μg/ml; 95% inhibition of bacterial growth. In short, it runs like this:
as §2

The test system of data set [7] is Serratia marcescens expressing IMP-1 (CL5741). Format: cell-based. The settings on record: with imipenem 1 μg/ml; 95% inhibition of bacterial growth. In short, it runs like this:
as §2

The test system of data set [8] is P. aeruginosa MB9798 (efflux+, IMP-1 plasmid). The settings on record: for MB9798 MITC95 P. aeruginosa uM Efflux WT: efflux + (MB9798) strain, imipenem at 2 μg/mL, in the presence of a class A, C, D serine β-lactamase inhibitor closely related to relebactam; for Efflux ratio: fold difference between efflux+ (MB9798) and efflux− (MB9799) strains. The method, boiled down:
(§3)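 Isogenic P. aeruginosa PAO1 strains (efflux+ and multiple-efflux-pump-disrupted) carrying plasmid IMP-1, with inducible AmpC, tested by broth microdilution. Imipenem and/or ceftazidime fixed, usually at CLSI breakpoint, plus fixed class A/C β-lactamase inhibitor; titrated MBL inhibitor concentration restoring susceptibility recorded and compared between strains as efflux fold difference.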

In data set [9] the test system is P. aeruginosa MB9799 (efflux-, IMP-1 plasmid). It counts as cell-based, Pseudomonas aeruginosa. The settings on record: efflux − (MB9799) strain; imipenem at 2 μg/mL; in the presence of a class A, C, D serine β-lactamase inhibitor closely related to relebactam. In short, it runs like this: as §3
Where [10] appears, read: CCF2-FA fluorescence assay, read-out: VIM2 IC50.

IMP-1, sequence (P52699 whole entry, looked up, species assumed): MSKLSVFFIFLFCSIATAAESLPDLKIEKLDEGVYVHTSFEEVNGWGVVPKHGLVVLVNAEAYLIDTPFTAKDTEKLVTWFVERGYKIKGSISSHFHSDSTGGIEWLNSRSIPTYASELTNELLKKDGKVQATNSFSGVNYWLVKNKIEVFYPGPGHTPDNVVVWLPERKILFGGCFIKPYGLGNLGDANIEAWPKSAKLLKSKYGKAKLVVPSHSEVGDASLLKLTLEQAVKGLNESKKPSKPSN
NDM-1, sequence (C7C422 whole entry, looked up, species assumed): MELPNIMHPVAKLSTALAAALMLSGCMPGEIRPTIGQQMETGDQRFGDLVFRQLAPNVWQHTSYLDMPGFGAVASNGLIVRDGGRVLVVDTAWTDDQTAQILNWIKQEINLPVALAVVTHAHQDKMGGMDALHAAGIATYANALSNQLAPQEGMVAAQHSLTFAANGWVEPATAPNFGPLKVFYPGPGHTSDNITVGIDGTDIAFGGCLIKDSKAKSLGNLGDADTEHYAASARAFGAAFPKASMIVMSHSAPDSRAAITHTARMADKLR

Take `NC[C@@H](O)CNS(=O)(=O)c1ccc(N[C@H]2C[C@H](N)C2)c(-c2nnn[nH]2)c1S(N)(=O)=O` [Example 192, (R)—N1-(3-amino-2-hydroxypropyl)-4-((3-aminocyclobutyl)amino)-3-(1H-tetrazol-5-yl)benzene-1,2-disulfonamide]: the IC50 was 66.3 nM in [1]; 97 nM in data set [2]; 67.5 nM in data set [3]; 200 nM in data set [4] (VIM2 IC50, CCF2-FA fluorescence assay). In [5], the “CLB30016 E. coli MITC95 NDM” value was 1.56 µM. In data set [6], the “IHMA599644 K. pneumoniae MITC95 VIM” value stood at 6.25 µM. For the same molecule, the “CL5741 S. marcescens MITC95 IMP” value in [7] was found to be 3.13 µM. Besides, the “MB9798 MITC95 P. aeruginosa uM Efflux WT” value in data set [8] was found to be 6.25 µM. The Efflux ratio in data set [8] came out at 2.00. Further, in [9], the “MB9799 MITC95 P. aeruginosa uM Efflux Mutant” value was 3.13 µM.
For `NC[C@@H](O)CNS(=O)(=O)c1ccc(N2CCN(CCO)CC2)c(-c2nnn[nH]2)c1S(N)(=O)=O` [Example 47, (R)-N1-(3-amino-2-hydroxypropyl)-4-(4-(2-hydroxyethyl)piper-azin-1-yl)-3-(1H-tetrazol-5-yl)benzene-1,2-disulfonamide], the IC50 in data set [1] worked out at 3.94 nM; in data set [2] it was 4.57 nM; in [3], 5.02 nM; in [4] (setting [10]), 7.34 nM. Also, in data set [5], the “CLB30016 E. coli MITC95 NDM” value stood at 0.10 µM. In data set [6], the “IHMA599644 K. pneumoniae MITC95 VIM” value worked out at 0.78 µM. Also, the “CL5741 S. marcescens MITC95 IMP” value in data set [7] amounted to 0.10 µM. The “MB9798 MITC95 P. aeruginosa uM Efflux WT” value in data set [8] was found to be 1.56 µM. Besides, the Efflux ratio in [8] worked out at 2.00. Further, the “MB9799 MITC95 P. aeruginosa uM Efflux Mutant” value in [9] is 0.78 µM.
Turning to `NCC1(O)CCN(c2ccc(S(=O)(=O)N[C@@H]3CCNC3)c(S(N)(=O)=O)c2-c2nnn[nH]2)CC1` [Example 85, 4-[4-(aminomethyl)-4-hydroxypiperidin-1-yl]-N1-[(3R)-pyrrolidin-3-yl]-3-(1H-tetrazol-5-yl)benzene-1,2-disulfonamide], the IC50 came to 3.15 nM in [1], 9.94 nM in data set [2], 2.13 nM in [3] and 23.7 nM in data set [4] (setting [10]). In data set [5], the “CLB30016 E. coli MITC95 NDM” value worked out at 0.78 µM. The “IHMA599644 K. pneumoniae MITC95 VIM” value in [6] is 1.56 µM. In data set [7], the “CL5741 S. marcescens MITC95 IMP” value turned out to be 1.56 µM. Further, the “MB9798 MITC95 P. aeruginosa uM Efflux WT” value in data set [8] is 1.56 µM. For the same molecule, in data set [8], the Efflux ratio is 2.00. Further, the “MB9799 MITC95 P. aeruginosa uM Efflux Mutant” value in data set [9] turned out to be 0.78 µM.
For the molecule `NCC(=O)N1CCN(c2ccc(S(=O)(=O)NC[C@H](O)CN)c(S(N)(=O)=O)c2-c2nn[nH]n2)CC1` [Example 119, (R)—N1-(3-amino-2-hydroxypropyl)-4-(4-(2-aminoacetyl)piperazin-1-yl)-3-(2H-tetrazol-5-yl)benzene-1,2-disulfonamide], the IC50 was 3.45 nM in data set [1], 6.56 nM in [2], 0.57 nM in data set [3] and 10.1 nM in data set [4] (setting [10]). The “CLB30016 E. coli MITC95 NDM” value in [5] was 0.78 µM. Further, the “IHMA599644 K. pneumoniae MITC95 VIM” value in data set [6] came out at 1.56 µM. For the same molecule, the “CL5741 S. marcescens MITC95 IMP” value in data set [7] turned out to be 0.78 µM. The “MB9798 MITC95 P. aeruginosa uM Efflux WT” value in data set [8] was 1.56 µM. The Efflux ratio in data set [8] turned out to be 2.00. In data set [9], the “MB9799 MITC95 P. aeruginosa uM Efflux Mutant” value amounted to 0.78 µM.
On to `CN(C)[C@@H]1CCN(c2ccc(S(=O)(=O)N[C@@H]3CCNC3)c(S(N)(=O)=O)c2-c2nnn[nH]2)C1` [Example 68, 4-[(3R)-3-(dimethylamino)pyrrolidin-1-yl]-N1-[(3R)-pyrrolidin-3-yl]-3-(1H-tetrazol-5-yl)benzene-1,2-disulfonamide], for which the IC50 in [1] worked out at 22.1 nM; in data set [2] it was 16.2 nM; in data set [3], 2.11 nM; in data set [4] (setting [10]) it was 17.8 nM. In addition, the “CLB30016 E. coli MITC95 NDM” value in data set [5] was found to be 0.78 µM. Further, the “IHMA599644 K. pneumoniae MITC95 VIM” value in data set [6] was 1.56 µM. In addition, in [7], the “CL5741 S. marcescens MITC95 IMP” value stood at 1.56 µM. Besides, the “MB9798 MITC95 P. aeruginosa uM Efflux WT” value in [8] amounted to 12.50 µM. For the same molecule, the Efflux ratio in data set [8] is 8.00. For the same molecule, in [9], the “MB9799 MITC95 P. aeruginosa uM Efflux Mutant” value was 1.56 µM.
Turning to `CC(=O)N[C@H]1CCN(c2ccc(S(=O)(=O)N[C@@H]3CCNC3)c(S(N)(=O)=O)c2-c2nnn[nH]2)C1` [Example 83, N-[(3S)-1-{4-[(3R)-pyrrolidin-3-ylsulfamoyl]-3-sulfamoyl-2-(1H-tetrazol-5-yl)phenyl}pyrrolidin-3-yl]acetamide], the IC50 in data set [1] worked out at 4.98 nM; in data set [2], 15.9 nM; in data set [3], 2.11 nM; in data set [4] (setting [10]), 2.82 nM. Further, in data set [5], the “CLB30016 E. coli MITC95 NDM” value is 6.25 µM. Also, in [6], the “IHMA599644 K. pneumoniae MITC95 VIM” value amounted to 12.50 µM. Further, in data set [7], the “CL5741 S. marcescens MITC95 IMP” value turned out to be 3.13 µM. The “MB9798 MITC95 P. aeruginosa uM Efflux WT” value in data set [8] turned out to be 12.50 µM. Also, in data set [8], the Efflux ratio was determined as 4.00. In data set [9], the “MB9799 MITC95 P. aeruginosa uM Efflux Mutant” value amounted to 3.13 µM.
For the molecule `NCCN1CCN(c2ccc(S(=O)(=O)NC[C@H](O)CN)c(S(N)(=O)=O)c2-c2nn[nH]n2)CC1=O` [Example 147, (R)-N1-(3-amino-2-hydroxypropyl)-4-(4-(2-aminoethyl)-3-oxopiperazin-1-yl)-3-(2H-tetrazol-5-yl)benzene-1,2-disulfonamide], the IC50 in [1] was 27 nM; in data set [2], 39.6 nM; in data set [3], 0.28 nM; in [4] (setting [10]), 56.2 nM. In addition, in [5], the “CLB30016 E. coli MITC95 NDM” value was determined as 0.39 µM. For the same molecule, the “IHMA599644 K. pneumoniae MITC95 VIM” value in data set [6] amounted to 1.56 µM. The “CL5741 S. marcescens MITC95 IMP” value in data set [7] is 0.78 µM. In addition, the “MB9798 MITC95 P. aeruginosa uM Efflux WT” value in [8] worked out at 3.13 µM. The Efflux ratio in data set [8] is reported as 4.00. Also, the “MB9799 MITC95 P. aeruginosa uM Efflux Mutant” value in data set [9] was determined as 0.78 µM.
As for `NC[C@@H](O)CNS(=O)(=O)c1ccc(N2CC[C@H](CN)[C@@H](F)C2)c(-c2nn[nH]n2)c1S(N)(=O)=O` (stereo in doubt) [Example 13, N^1—((R)-3-amino-2-hydroxypropyl)-4-(trans-4-(aminomethyl)-3-fluoropiperidin-1-yl)-3-(2H-tetrazol-5-yl)benzene-1,2-disulfonamide], the IC50 came out at 3.01 nM in [1], 3.7 nM in [2], 0.14 nM in data set [3] and 4.12 nM in [4] (setting [10]). For the same molecule, the “CLB30016 E. coli MITC95 NDM” value in [5] is 1.56 µM. The “IHMA599644 K. pneumoniae MITC95 VIM” value in [6] came to 0.78 µM. The “CL5741 S. marcescens MITC95 IMP” value in [7] was determined as 0.78 µM. The “MB9798 MITC95 P. aeruginosa uM Efflux WT” value in data set [8] is 0.78 µM. Moreover, the Efflux ratio in data set [8] stood at 2.00. The “MB9799 MITC95 P. aeruginosa uM Efflux Mutant” value in data set [9] amounted to 0.39 µM.
Take `N[C@@H]1CCCN(c2ccc(S(=O)(=O)N[C@@H]3CCNC3)c(S(N)(=O)=O)c2-c2nn[nH]n2)C1=O` [Example 155]: the IC50 in [1] was found to be 5.12 nM; in [2], 81.4 nM; in data set [3], 2.14 nM; in data set [4] (setting [10]), 6.87 nM. In addition, in data set [5], the “CLB30016 E. coli MITC95 NDM” value amounted to 0.39 µM. Besides, in data set [6], the “IHMA599644 K. pneumoniae MITC95 VIM” value stood at 1.56 µM. The “CL5741 S. marcescens MITC95 IMP” value in [7] is 3.13 µM. The “MB9798 MITC95 P. aeruginosa uM Efflux WT” value in data set [8] was determined as 6.25 µM. Moreover, the Efflux ratio in data set [8] is given as 2.00. Moreover, the “MB9799 MITC95 P. aeruginosa uM Efflux Mutant” value in [9] was 3.13 µM.
Turning to `NS(=O)(=O)c1c(S(=O)(=O)N[C@@H]2CCNC2)ccc(N2CCC(CO)CC2=O)c1-c1nn[nH]n1` (stereo partly drawn) [Example 157, 4-(4-(hydroxymethyl)-2-oxopiperidin-1-yl)-N1-((R)-pyrrolidin-3-yl)-3-(2H-tetrazol-5-yl)benzene-1,2-disulfonamide], the IC50 in data set [1] was determined as 0.24 nM; in [2], 6.9 nM; in data set [3] it was 0.25 nM; in data set [4] (setting [10]), 1.85 nM. The “CLB30016 E. coli MITC95 NDM” value in data set [5] worked out at 1.56 µM. The “IHMA599644 K. pneumoniae MITC95 VIM” value in [6] was found to be 6.25 µM. In data set [7], the “CL5741 S. marcescens MITC95 IMP” value was 3.13 µM. The “MB9798 MITC95 P. aeruginosa uM Efflux WT” value in data set [8] was found to be 3.13 µM. The Efflux ratio in [8] is 1.00. In addition, in data set [9], the “MB9799 MITC95 P. aeruginosa uM Efflux Mutant” value was determined as 3.13 µM.
